Reference: publication PMC12377105, “Development of eugenol derivatives with 5-LOX inhibitory activity” (Journal of Enzyme Inhibition and Medicinal Chemistry, 2025)
Values joined by “and” are separate entries in the source; they are usually repeats but may differ in a detail not shown here. Identical values can stand only once.

Molecular target: T1, soybean lipoxygenase (model enzyme for 5-LOX) (Glycine max, UniProt P08170)
T1 sequence (P08170 1-839): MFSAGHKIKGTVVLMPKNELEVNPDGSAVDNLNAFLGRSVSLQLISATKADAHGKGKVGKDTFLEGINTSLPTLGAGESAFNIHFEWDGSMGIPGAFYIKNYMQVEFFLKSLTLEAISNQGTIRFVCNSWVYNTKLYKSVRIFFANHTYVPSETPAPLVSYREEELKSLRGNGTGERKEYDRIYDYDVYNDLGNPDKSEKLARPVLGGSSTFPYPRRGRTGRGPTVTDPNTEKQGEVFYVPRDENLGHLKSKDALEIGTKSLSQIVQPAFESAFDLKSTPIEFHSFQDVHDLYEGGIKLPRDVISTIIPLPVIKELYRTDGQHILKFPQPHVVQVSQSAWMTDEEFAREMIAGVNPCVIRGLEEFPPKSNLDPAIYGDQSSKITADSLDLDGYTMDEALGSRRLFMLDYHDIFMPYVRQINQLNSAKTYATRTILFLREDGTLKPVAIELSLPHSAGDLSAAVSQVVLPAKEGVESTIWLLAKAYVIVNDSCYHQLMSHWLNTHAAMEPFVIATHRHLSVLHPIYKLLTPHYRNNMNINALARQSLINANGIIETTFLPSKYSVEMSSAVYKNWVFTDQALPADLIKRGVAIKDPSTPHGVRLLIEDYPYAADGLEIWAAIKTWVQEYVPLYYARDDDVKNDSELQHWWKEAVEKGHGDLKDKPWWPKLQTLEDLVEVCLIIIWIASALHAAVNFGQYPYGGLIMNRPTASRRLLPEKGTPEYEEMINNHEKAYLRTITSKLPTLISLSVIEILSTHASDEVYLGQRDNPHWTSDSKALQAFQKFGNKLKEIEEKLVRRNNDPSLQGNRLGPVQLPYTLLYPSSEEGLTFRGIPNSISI
Assay: In vitro 5-LOX inhibition assay (soybean lipoxygenase, oxidation of linoleic acid at 234 nm)
Assay type: biochemical
Conditions: for IC50: dose-response, concentration range 6.25-100 µM
Procedure: Soybean lipoxygenase (linoleate 13S-lipoxygenase) is widely accepted as a model enzyme to screen compounds for LOX inhibition due to the high degree of binding site similarity between plant LOXs and animal 5-LOX[20]. LOX inhibition was assessed at room temperature, following the oxidation of linoleic acid to 13-hydroperoxylinoleic acid at 234 nm, according to a described procedure. The assay was performed by adding 20 μL of each eugenol derivative (1.3 mM) dissolved in phosphate buffer, 200 μL of phosphate buffer (pH 9.0) and 20 μL of soybean lipoxygenase solution (100 U). After 5 min of incubation at room temperature, the reaction was initiated by the addition of 20 μL of linoleic acid (4.18 mM in ethanol), absorbance being monitored during 3 min, using a Multiskan GO plate reader (Thermo Fisher Scientific; Waltham, MA, USA). The inhibition of enzyme activity was then calculated by comparing the reaction rate with the control (no compound). Quercetin (50 μM, final concentration) was used as a positive control.

[1] = 100 µM, cell-free preliminary screening

Structure (SMILES)	5-LOX inhibitory activity (in words) [1]	IC50	inhibition at 100 µM [1]
C=CCc1ccc(OCCCC(=O)OCC)c(OC)c1 [4e, ethyl-4-(4-allyl-2-methoxyphenoxy)butanoate]	statistically significant reduction in 5-LOX activity	< 100 µM and 76.2 µM	
COc1cc(CC2CO2)ccc1OCCCOC(C)=O (stereo not drawn) [5d, 3-(2-methoxy-4-(oxiran-2-ylmethyl)phenoxy)propyl acetate]	highly active	< 100 µM and 36.9 µM	
COCC(O)Cc1ccc(O)c(OC)c1 (stereo not drawn) [7a]	inactive		
CCOCC(O)Cc1ccc(O)c(OC)c1 (stereo not drawn) [7b]			~30%
COc1cc(CC(O)COC(C)(C)C)ccc1O (stereo not drawn) [7c, 4-(3-(tert-butoxy)-2-hydroxypropyl)-2-methoxyphenol]	almost full inhibition	< 100 µM and 33.8 µM	
COc1cc(CC(O)COc2ccccc2)ccc1O (stereo not drawn) [7f]	inactive		
CCCCCCC(C)NCC(O)Cc1ccc(OC)c(O)c1 (stereo not drawn) [8b]	did not show statistically significant inhibition		
COc1cc(CC(O)CN2CCCCC2)ccc1O (stereo not drawn) [8c]	did not show statistically significant inhibition		
COc1cc(CC(O)CN(C)c2ccccc2)ccc1O (stereo not drawn) [8d]	statistically significant activity		
COc1cc(CC(O)CNc2ccccc2)ccc1O (stereo not drawn) [8e]	did not show statistically significant inhibition		
COc1cc(CC(O)CNc2ccc(C#N)cc2)ccc1O (stereo not drawn) [8f]	did not show statistically significant inhibition		
COc1ccc(NCC(O)Cc2ccc(O)c(OC)c2)cc1 (stereo not drawn) [8g]	statistically significant activity		
COc1cccc(NCC(O)Cc2ccc(O)c(OC)c2)c1 (stereo not drawn) [8h]	statistically significant activity		
COc1cc(CC(O)CNc2cccc(Br)c2)ccc1O (stereo not drawn) [8i]	did not show statistically significant inhibition		
COc1cc(CC(O)C[N+](=O)[O-])ccc1O (stereo not drawn) [9a]	did not show statistically significant inhibition		
C=CCc1ccc(O)c(O)c1 [compound 2, 4-allylbenzene-1,2-diol]	promising activity	< 100 µM and 34 µM	
COc1cc(CC2CO2)ccc1O (stereo not drawn) [compound 6, 2-methoxy-4-(oxiran-2-ylmethyl)phenol]	did not show inhibitory activity		
